The values that follow come from patent US20240376108A1, “SALT AND CRYSTAL FORM OF PYRAZOLE-CONTAINING POLYCYCLIC DERIVATIVE, AND PREPARATION METHOD THEREFOR AND USE THEREOF” (Shanghai Hansoh Biomedical Co., Ltd., priority 2021, published 2024).

Data set [1] is described as follows: Metabolic stability in liver microsome (mouse). Type of data set: in vitro ADME. Here is the method: (§1) Test Example 5. Assay of Metabolic Stability in Liver Microsome
(§2) 1. Experimental objective: The objective of the experiment is to determine the stability of the compounds of the Examples in liver microsome of mouse, rat, dog and human.
(§3) 2.1 Formulation of the working solution of the compound: Formulation of the working solution of the compound: The stock solution of the compound was added to phosphate buffer, and the final concentration was 20 μM.
(§4) 2.2 Formulation of the working solution of liver microsome: Liver microsome was diluted with 100 mM phosphate buffer to obtain a final concentration of 0.625 mg/mL.
(§5) 2.3 Formulation of NADPH and UDPGA: NADPH (reduced nicotinamide adenine dinucleotide phosphate) and UDPGA (uridine diphosphate glucuronic acid) were weighed respectively, followed by addition of 100 mM phosphate buffer. The final concentrations were 20 mM.
(§6) 2.4 Formulation of the channel-forming reagent: 1 mg of Alamethicin was weighed, to which 200 μL of DMSO was added to obtain a 5 mg/mL solution. The solution was diluted with phosphate buffer to obtain a final concentration of 50 μg/mL.
(§7) 2.5 Formulation of the reaction stop solution: Stop solution: Cold acetonitrile containing 100 ng/mL labetalol hydrochloride and 400 ng/mL tolbutamide as internal standards.
(§8) 2.6 Incubation procedure: 400 μL of the prepared liver microsome, 25 μL of the working solution of the compound and 25 μL of Alamethicin were added to a 96-well plate successively, which was then pre-incubated at 37° C. for 10 minutes. 50 μL of the prepared NADPH/UDPGA was added to initiate the reaction, and the plate was incubated at 37° C. The total volume of the reaction system was 500 μL. The final contents of the components were as follows:
(§9) 2.7.1 Chromatographic conditions: • Instrument: Shimadzu LC-30 AD; Chromatographic column: XBridge® C18 (50*4.6 mm, particle size: 5 μm); • Mobile phase: A: 0.1% formic acid solution, B: methanol • Eluent gradient: 0.2˜1.6 min 5% A to 95% A, 3.0˜3.1 min 95% A to 5% A • Running time: 4.0 min.
(§10) 2.7.2 Mass spectrometry conditions: • Instrument: API5500 liquid chromatography-mass spectrometer, AB Sciex; • Ion source: Electrospray ionization source (ESI); Drying gas: N2, temperature: 500° C.; • Electrospray voltage: 5000V; Detection method: Positive ion detection; • Scanning mode: Mode of reaction monitoring (MRM).
A general note: Microsomes from liver hold many membrane-bound enzymes, among them those of drug oxidation.

Data set [2] is described as follows: Metabolic stability in liver microsome (rat). Type of data set: in vitro ADME. The note with it: for Rat Remaining (%, 60 min): rat liver microsome. Here is the method:
as §1, §2, §3, §4, §5, §6, §7, §8, §9, §10

A short description of data set [3]: Metabolic stability in liver microsome (dog). In kind it is in vitro ADME. Conditions: for Dog Remaining (%, 60 min): dog liver microsome. The method, then: as §1, §2, §3, §4, §5, §6, §7, §8, §9, §10
Data set [4] is described as follows: Metabolic stability in liver microsome (human). The note with it: for Human Remaining (%, 60 min): human liver microsome. Type of data set: in vitro ADME. Here is the method:
as §1, §2, §3, §4, §5, §6, §7, §8, §9, §10

The subject of another data set is BALB/c mice. As to the kind of experiment: Taste sensitivity assay in BALB/c mice (quinine solution intake). In kind it is in vivo. The note with it: 30 mpk; for Solution consumption of single mouse, Quinine solution: 3 mmol/L quinine hydrochloride, 30 min. From the text:
Test Example 9. Taste Sensitivity Assay in BALB/c Mice
1. Experimental objective: In this assay, compounds with less toxic and side effects on animal taste were screened by quinine bitter solution experiment.
2.2 Reagents: Quinine monohydrochloride dihydrate (6119-47-7, Adamas).
2.3 Animals: BALB/c mice, 6 to 8 weeks old, ♂, purchased from Shanghai SIPPR-BK Laboratory Animal Co., Ltd.
3.1 Animal screening: One day before the experiment, all BALB/c mice were weighed, and animals with too high or too low body weight were excluded.
3.2 Grouping and water deprivation: BALB/c mice were randomly grouped according to body weight, and were deprived of water 12 to 16 hours before administration with no fasting.
3.3 Formulation of aqueous solution of quinine: An appropriate amount of quinine monohydrochloride dihydrate was weighed and formulated into an aqueous solution quinine hydrochloride (concentration: 3 mmol/L) with ultrapure water for later use.
3.4 Formulation of test compound: An appropriate amount of the test compound was weighed and formulated into the target concentration with the corresponding solvent according to the experimental design for later use.
3.5 Administration and quinine solution intake assay in animal: Administration and fasting: On the day of the experiment, the animals were weighed and fasted, bedding was changed, and the compounds were administered according to the experimental design.
1. The corresponding clean mouse drinking bottle was rinsed 2 to 3 times with ultrapure water and the formulated 3 mmol/L aqueous solution of quinine hydrochloride respectively. The bottle was filled and weighed, and the weight was recorded as Wi0.
2. According to the experimental design, a certain period after administration, the filled bottle was gently placed in the corresponding mouse cage, and the timing was started. After 30 min, the bottle was gently taken out and weighed, and the weight was recorded as Wi30.
3. Calculation of solution consumption of animals in each group: ΔWW(g)=[…]; calculation of solution consumption of single mouse: ΔpWW(g)=ΔWW/N, N is the number of animals in each group.
4. Dysgeusia rate=(ΔpWW of the group in which the drinking water was the aqueous solution of quinine hydrochloride and the test compound was administered at the same time−ΔpWW of the group in which the drinking water was the aqueous solution of quinine hydrochloride and the solvent control was administered at the same time)/(ΔpWW of the group in which the drinking water was ultrapure water and the solvent control was administered at the same time−ΔpWW of the group in which the drinking water was the aqueous solution of quinine hydrochloride and the solvent control was administered at the same time)×100%. Data processing was performed with software such as Excel.

For `O=C(Cn1c(=O)c2ccc(C(F)(F)F)nc2n2nc(Br)cc12)Nc1ccc(F)cn1` [Example 15, 2-(2-bromo-5-oxo-8-(trifluoromethyl)pyrazolo[1,5-a]pyrido[3,2-e]pyrimidin-4(5H)-yl)-N-(5-fluoropyridin-2-yl)acetamide], in data set [1], the “Mouse Remaining (%, 60 min)” value came out at 92.5%. Further, in data set [2], the “Rat Remaining (%, 60 min)” value turned out to be 102.3%. Moreover, the “Dog t1/2” value in data set [3] (dog liver microsome 0.5 mg/mL, compound 1 μM, NADPH/UDPGA) was 15.62 h. Further, in data set [3], the “Dog Remaining (%, 60 min)” value is given as 96.0%. Moreover, in data set [4] (human liver microsome 0.5 mg/mL, compound 1 μM, NADPH/UDPGA), the “Human t1/2” value is recorded as “∞”. Further, the “Human Remaining (%, 60 min)” value in data set [4] worked out at 100.4%. Also, in the data set on BALB/c mice, the Dysgeusia rate is recorded as −3.77% and the “Solution consumption of single mouse, Quinine solution” value (from here on “Solution consumption of single mouse”) came to 0.048 g.

As to `N#Cc1cc2n(CC(=O)Nc3ccc(F)cn3)c(=O)c3ccc(C(F)(F)F)nc3n2n1` [Example 17, 2-(2-Cyano-5-oxo-8-(trifluoromethyl)pyrazolo[1,5-a]pyrido[3,2-e]pyrimidin-4(5H)-yl)-N-(5-fluoropyridin-2-yl)acetamide], in data set [1], the “Mouse Remaining (%, 60 min)” value stood at 91.6%. Also, in data set [2] (rat liver microsome 0.5 mg/mL, compound 1 μM, NADPH/UDPGA), the “Rat t1/2” value is given as “∞”. Besides, the “Rat Remaining (%, 60 min)” value in data set [2] came to 106.4%. For the same compound, the “Dog Remaining (%, 60 min)” value in data set [3] was determined as 99.0%. In data set [4], the “Human Remaining (%, 60 min)” value stood at 101.2%. Further, in the data set on BALB/c mice, the Dysgeusia rate is reported as −2.26% and the “Solution consumption of single mouse” value worked out at 0.056 g.

Consider `O=C(Cn1c(=O)c2ccc(C(F)(F)F)nc2n2nccc12)Nc1ccc(F)cn1` [Example 18, N-(5-Fluoropyridin-2-yl)-2-(5-oxo-8-(trifluoromethyl)pyrazolo[1,5-a]pyrido[3,2-e]pyrimidin-4(5H)-yl)acetamide], for which the “Mouse Remaining (%, 60 min)” value in data set [1] was determined as 99.3%. For the same compound, the “Rat Remaining (%, 60 min)” value in data set [2] is 98.9%. In addition, the “Dog Remaining (%, 60 min)” value in data set [3] was 93.4%. Also, the “Human Remaining (%, 60 min)” value in data set [4] came out at 97.5%. For the same compound, in the data set with BALB/c mice, the Dysgeusia rate was −9.81% and the “Solution consumption of single mouse” value was 0.016 g.
